This is an account of results in patent publication US20220204476A1, “RNA VIRUS INHIBITOR COMPOUNDS AND USES THEREOF” (The Governors of the University of Alberta, priority 2020, published 2022).

Data set [1] in a line: Cytotoxicity, CellTiter-Glo luminescent cell viability assay. The conditions noted are these: human (A549) and green monkey (Vero E6). On the technique in general: In ATP-based viability assays light output follows the ATP content of the culture.
In a further data set the target is SARS-CoV-2 3CLP (Severe acute respiratory syndrome coronavirus 2, UniProt P0DTD1). The data set is described as follows: SARS-CoV-2 3CLP inhibition, FRET-based cleavage assay. The conditions noted are these: 80 nM SARS-CoV-2 3CLP, 100 μM substrate, 37° C., 10 min incubation, pH 7.8; read-out: 3CL Protease IC50. The class given is biochemical.
Another data set has as its system SARS-CoV-2. The data set is described as follows: SARS-CoV-2 in vitro plaque reduction assay in Vero E6 cells. The class given is cell-based. The note with it: Severe acute respiratory syndrome coronavirus 2, Vero C1008, MOI 0.0001 pfu/cell, plaques counted after 48 h, >5 μM = did not reduce plaque numbers by half at 10 μM, read-out: SARS-CoV-2 Antiviral EC50.

Each structure is given as a SMILES string.

For orientation: CC50 means the concentration at which the toxic effect on the cells reaches its halfway point. A word on the IC50: it is the concentration that inhibits the measured activity by half. `COc1cccc2[nH]c(C(=O)N[C@@H](CC(C)C)C(=O)N[C@@H](C[C@@H]3CCCNC3=O)C(=O)COC(=O)c3c(Cl)cccc3Cl)cc12` [Compound 5, (3S)-3-{[N-(4-methoxy-1H-indole-2-carbonyl)-L-leucyl]amino}-2-oxo-4-[(3S)-2-oxopiperidin-3-yl]butyl 2,6-dichlorobenzoate] returned a CC50 at 24 h in data set [1] of over 200000 nM. The IC50 at SARS-CoV-2 3CLP is 6.4 nM.
The EC50 is the concentration at which the effect is half-maximal. In turn, `COc1cccc2[nH]c(C(=O)N[C@@H](CC(C)C)C(=O)N[C@@H](C[C@@H]3CCCNC3=O)C(=O)COC(=O)c3c(C(F)(F)F)cccc3C(F)(F)F)cc12` [Compound 6, (3S)-3-{[N-(4-methoxy-1H-indole-2-carbonyl)-L-leucyl]amino}-2-oxo-4-[(3S)-2-oxopiperidin-3-yl]butyl 2,6-bis(trifluoromethyl)benzoate] displayed a CC50 at 24 h in data set [1] of over 200000 nM. Moreover, on SARS-CoV-2 3CLP, the half-inhibitory concentration (IC50) was 1 nM. Further, the EC50 with SARS-CoV-2 was 210 nM.
In the same order, the values of `COc1cccc2[nH]c(C(=O)N[C@@H](CC(C)C)C(=O)N[C@@H](C[C@@H]3CCCNC3=O)C(=O)COC(=O)C(C)(C)C(F)(F)F)cc12` [Compound 13, (3S)-3-{[N-(4-methoxy-1H-indole-2-carbonyl)-L-leucyl]amino}-2-oxo-4-[(3S)-2-oxopiperidin-3-yl]butyl 3,3,3-trifluoro-2,2-dimethylpropanoate] are over 200000 nM, 20 nM and over 5000 nM.
Take `COc1cccc2[nH]c(C(=O)N[C@@H](CC(C)C)C(=O)N[C@@H](C[C@@H]3CCCNC3=O)C(=O)COC(=O)c3c(C(F)(F)F)cc(C)nc3C)cc12` [Compound 18, (3S)-3-{[N-(4-methoxy-1H-indole-2-carbonyl)-L-leucyl]amino}-2-oxo-4-[(3S)-2-oxopiperidin-3-yl]butyl 2,6-dimethyl-4-(trifluoromethyl)pyridine-3-carboxylate]: in data set [1], the CC50 at 24 h is over 200000 nM. Moreover, the IC50 at SARS-CoV-2 3CLP worked out at 14 nM. Besides, in the data set on SARS-CoV-2, the EC50 was determined as 460 nM.
In the same order, the values of `COc1cccc2[nH]c(C(=O)N[C@@H](CC(C)C)C(=O)N[C@H](C#N)C[C@@H]3CCCNC3=O)cc12` [Compound 34, N-[(2S)-1-({(1S)-1-cyano-2-[(3S)-2-oxopiperidin-3-yl]ethyl}amino)-4-methyl-1-oxopentan-2-yl]-4-methoxy-1H-indole-2-carboxamide] are over 200000 nM, 13 nM and 2700 nM.
In the case of `CC(C)C[C@H](NC(=O)c1cc2c(OC(F)(F)F)cccc2[nH]1)C(=O)N[C@H](C#N)C[C@@H]1CCCNC1=O` [Compound 40, N-[(2S)-1-({(1S)-1-cyano-2-[(3S)-2-oxopiperidin-3-yl]ethyl}amino)-4-methyl-1-oxopentan-2-yl]-4-(trifluoromethoxy)-1H-indole-2-carboxamide], in data set [1], the CC50 at 24 h is over 50000 nM. The 50% inhibitory concentration (IC50) at SARS-CoV-2 3CLP was 14 nM. For the same compound, the concentration giving a half-maximal response (EC50) in the data set on SARS-CoV-2 stood at 2600 nM.
For `CCOc1cccc2[nH]c(C(=O)N[C@@H](CC(C)C)C(=O)N[C@H](C#N)C[C@@H]3CCCNC3=O)cc12` [Compound 69, N-[(2S)-1-({(1S)-1-cyano-2-[(3S)-2-oxopiperidin-3-yl]ethyl}amino)-4-methyl-1-oxopentan-2-yl]-4-ethoxy-1H-indole-2-carboxamide] the same measures were over 200000 nM, 24 nM and 4800 nM.
`COc1cccc2[nH]c(C(=O)N[C@@H](CC(C)(C)C)C(=O)N[C@H](C#N)C[C@@H]3CCCNC3=O)cc12` [Compound 70, N-[(2S)-1-({(1S)-1-cyano-2-[(3S)-2-oxopiperidin-3-yl]ethyl}amino)-4,4-dimethyl-1-oxopentan-2-yl]-4-methoxy-1H-indole-2-carboxamide]: the CC50 at 24 h in data set [1] was over 200000 nM. Also, the EC50 in the data set with SARS-CoV-2 is over 5000 nM.
`CC(C)C[C@H](NC(=O)c1cc2c3c(ccc2[nH]1)CCO3)C(=O)N[C@H](C#N)C[C@@H]1CCCNC1=O` [Compound 71, N-[(2S)-1-({(1S)-1-cyano-2-[(3S)-2-oxopiperidin-3-yl]ethyl}amino)-4-methyl-1-oxopentan-2-yl]-3,6-dihydro-2H-furo[2,3-e]indole-7-carboxamide]: the CC50 at 24 h in data set [1] is over 200000 nM. For the same compound, the IC50 at SARS-CoV-2 3CLP was found to be 49 nM. In the data set with SARS-CoV-2, the concentration for a half-maximal effect (EC50) was over 5000 nM.
For `Cc1cc(C)c(C(=O)OCC(=O)[C@H](C[C@@H]2CCCNC2=O)NC(=O)[C@H](CC(C)C)NC(=O)[C@H]2CCCO2)c(C)n1` [Compound 73, (3S)-2-oxo-3-({N-[(2R)-oxolane-2-carbonyl]-L-leucyl}amino)-4-[(3S)-2-oxopiperidin-3-yl]butyl 2,4,6-trimethylpyridine-3-carboxylate], in data set [1], the CC50 at 24 h was over 200000 nM. In addition, at SARS-CoV-2 3CLP, the concentration for half-maximal inhibition (IC50) is 190 nM. The EC50 with SARS-CoV-2 is under 1000 nM.
`CC(C)C[C@H](NC(=O)[C@H]1CCCO1)C(=O)N[C@@H](C[C@@H]1CCNC1=O)C(=O)COC(=O)c1c(C(F)(F)F)cccc1C(F)(F)F` [Compound 74, (3S)-2-oxo-3-({N-[(2R)-oxolane-2-carbonyl]-L-leucyl}amino)-4-[(3S)-2-oxopyrrolidin-3-yl]butyl 2,6-bis(trifluoromethyl)benzoate]: the CC50 at 24 h in data set [1] is over 200000 nM. For the same compound, the 50% inhibitory concentration (IC50) at SARS-CoV-2 3CLP stood at 110 nM. In addition, the EC50 in the data set on SARS-CoV-2 is under 1000 nM.
